# Measurements reported in patent US20080188564A1, “Insecticidal and Nematicidal Compositions and Methods of Use” (priority 2004, published 2008).
# Legend:
# [1] = system: M. incognita; assay: Toxicity of DIDS on M. incognita infective juveniles; assay type: in vivo, Meloidogyne incognita
# Experimental: Meloidogyne incognita cultures were maintained on potted tomatoes (c.v. Rutgers) in a greenhouse. Infective juvenile nematodes for analysis were extracted as eggs from infected tomato roots by shaking the roots in 1% bleach for 2 minutes. Eggs were captured in a 500-mesh sieve, rinsed in water and placed in Baerman funnels. When the eggs hatched, the juveniles moved downward in the funnels, and hatched infective juveniles were collected after 48 hours.
# (§1) We determined the toxicity of DIDS to infective juveniles of M. incognita and H. bacteriophora. Infective juveniles were assayed because they represent the only free-living life stage for both nematode species; adults live within their respective hosts and are not amenable to this type of test. Further, the infective juvenile of M. incognita would likely be the target of a nematicide based upon this material. The tests were conducted in either 35 mm Petri dishes or 96 well plates, holding the test material dissolved in DMSO and dispersed into tap water. Each dish was considered a replicate and contained 10-30 nematodes of either species. Each well of the 96-well plates had one nematode.
# DIDS-H.b.=DIDS-exposed H. bacteriophora; DIDS-M.i.=DIDS-exposed Meloidogyne incognita. DIDS was dissolved in DMSO, and DMSO-M.i.=DMSO-exposed Meloidogyne incognita. Average percentage mortality for each treatment group was calculated from 5 replicates containing 10 nematodes each. Bars are means±SEM.
# (§2) To further characterize the nematode-inhibiting effect of a stilbene compound (DIDS), experiments were performed as described above, using a 96 well plate and 10-30 nematodes per well, and using the plant parasite M. incognita and the free-living C. elegans. The results are depicted in Tables 1 and 2.
# [2] = system: C. elegans; assay: Toxicity of DIDS on C. elegans (96 well plate); assay type: in vivo, Caenorhabditis elegans
# Experimental: as §1, §2
# [3] = system: voltage-gated chloride channels; conditions: Torpedo membranes vs rat brain membranes; cited from earlier work
# [4] = system: Caenorhabditis elegans; conditions: at 100 ug/ml; cited from earlier work
# [5] = system: H. megidis; conditions: concentrations up to 200 ug/ml; cited from earlier work
# [6] = system: Meloidogyne incognita; conditions: at 100 ug/ml; cited from earlier work
smiles,measurement,setting,value
"O=S(=O)(O)c1cc(N=C=S)ccc1/C=C/c1ccc(N=C=S)cc1S(=O)(=O)O [DIDS, trans-4,4′-diisothiocyanatostilbene-2,2′-disulfonic acid]",LC50,[1]; 1-day (24 hr),160.03 ppm
same,Slope,[1]; 1-day (24 hr),1.77 ± 0.50
same,LC50,[1]; 2-day (48 hr),97.91 ppm
same,Slope,[1]; 2-day (48 hr),1.52 ± 0.30
same,LC50,[1]; 3-day (72 hr),37.84 ppm
same,Slope,[1]; 3-day (72 hr),1.83 ± 0.30
same,LC50,[1]; 5-day (120 hr),17.07 ppm
same,Slope,[1]; 5-day (120 hr),2.75 ± 0.36
same,LC50,[1]; 7-day (168 hr),11.58 ppm
same,Slope,[1]; 7-day (168 hr),4.04 ± 0.59
same,toxicity (mortality) to nematodes,"[1]; 24 hr, 100 ug/ml (200 uM), in DMSO/tap water",paralytic/lethal
same,time until toxic,[1]; DIDS at 10 ppm,2 days
same,time to paralysis,[1]; plant parasite nematode,2 days
same,LC50,[2]; 1-day (24 hr),196.13 ppm
same,Slope,[2]; 1-day (24 hr),1.43 ± 0.35
same,LC50,[2]; 2-day (48 hr),83.70 ppm
same,Slope,[2]; 2-day (48 hr),1.45 ± 0.29
same,LC50,[2]; 3-day (72 hr),31.53 ppm
same,Slope,[2]; 3-day (72 hr),1.87 ± 0.28
same,LC50,[2]; 5-day (120 hr),15.69 ppm
same,Slope,[2]; 5-day (120 hr),2.86 ± 0.36
same,LC50,[2]; 7-day (168 hr),10.67 ppm
same,Slope,[2]; 7-day (168 hr),4.57 ± 0.71
same,time until toxic,[2]; DIDS at 10 ppm,2 days
same,time to paralysis,[2]; free-living nematode,2 days
Cl[C@H]1[C@H](Cl)[C@@H](Cl)[C@@H](Cl)[C@H](Cl)[C@H]1Cl [lindane],"potency as inhibitor of [35S]TBPS binding, Torpedo membranes relative to rat brain",[3],about 4 fold
"CC(C)c1c(O)cc(C=Cc2ccccc2)cc1O [DST, 3,5-dihydroxy-4-isopropylstilbene]",24 hr lethality,[4],100%
same,sensitivity to DST,[5],completely insensitive
same,24 hr lethality,[6],100%
